Experimental data from patent US20240173419A1, “CDK2 DEGRADERS AND USES THEREOF” (Kymera Therapeutics, Inc., priority 2022, published 2024).

Target: T1, CDK2 (Homo sapiens, UniProt P24941)
T1 construct: endogenous in cells; host or cells: MKN1 cells
Assay: CDK2 degradation in MKN1 cells (AlphaLISA)
Assay type: cell-based
Details: 14 h incubation; for DC50: read-out: CDK2 degradation 14 h: Mean external-Abs DC50
How it was run: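 MKN1 cells (2e4/well) treated 14 h at 37° C with 11-point 1:5 dilutions (0.001 nM-10 μM, 0.1% DMSO). CDK2 in lysates quantified by AlphaLISA, no-cell background subtracted; DC50 from four-parameter logistic fit.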

Row | Structure (SMILES) | CDK2 degradation 14 h: Average Dmax % | DC50 [µM]
1 | Cc1cc(S(=O)(=O)C2CC3(CCN(CC4CCN(c5ccc6c(c5F)n(C)c(=O)n6C5CCC(=O)NC5=O)CC4)CC3)C2)ccc1Nc1ncc2cc(Cl)c(=O)n(C(C)C3CC3)c2n1 (stereo not shown) [I-285] | A (A (>75% o)) | < 0.1
2 | Cc1cc(S(=O)(=O)C2CC3(CCN(CC4CCN(c5ccc(F)c(NC6CCC(=O)NC6=O)c5)CC4)CC3)C2)ccc1Nc1ncc2cc(Cl)c(=O)n(C3CCCC3)c2n1 (stereo not shown) [I-70] | B (B (>50% -75%)) | > 1
3 | CN(CC1CCC(NS(=O)(=O)c2ccc(Nc3ncc(C(F)(F)F)c(N4CCCC(C)(O)C4)n3)c(C(F)F)c2)CC1)C1CN(c2ccc(C3CCC(=O)NC3=O)c(F)c2)C1 (stereo not shown) [I-1045] | B (B (>50% -75%)) | 0.1 to 0.5
4 | Cc1cc(S(=O)(=O)N2CCC(CN(C)C3CCN(c4cccc5c4n(C)c(=O)n5C4CCC(=O)NC4=O)CC3)CC2)ccc1Nc1ncc2cc(Cl)c(=O)n(C(C)C)c2n1 (stereo not shown) [I-437] | A (A (>75% o)) | < 0.1
5 | CC1(O)CCCN(c2nc(Nc3ccc(S(=O)(=O)NC4CCC(CN5CCN(c6ccc(C7CCC(=O)NC7=O)cc6)CC5)CC4)cc3C(F)(F)F)ncc2C(F)(F)F)C1 (stereo not shown) [I-1101] | B (B (>50% -75%)) | 0.1 to 0.5
6 | Cc1cc(S(=O)(=O)N[C@H]2C[C@H](N3CCN(CC4CCN(c5ccc6c(c5)n(C)c(=O)n6C5CCC(=O)NC5=O)CC4)CC3)C2)ccc1Nc1ncc2cc(Cl)c(=O)n(C(C)C)c2n1 (stereo partly shown) [I-203] | A (A (>75% o)) | < 0.1
7 | Cc1cc(S(=O)(=O)NCCOC2CC3(C2)CN(CCCc2ccc4c(c2)n(C)c(=O)n4C2CCC(=O)NC2=O)C3)ccc1Nc1ncc2ccc(=O)n(C3CCCC3)c2n1 (stereo not shown) [I-472] | A (A (>75% o)) | < 0.1
8 | Cc1cc(S(=O)(=O)C2CCC(CN(C)C3CCN(c4cccc5c4n(C)c(=O)n5C4CCC(=O)NC4=O)CC3)CC2)ccc1Nc1ncc2cc(Cl)c(=O)n(C3CCCC34CC4)c2n1 (stereo not shown) [I-60] | A (A (>75% o)) | < 0.1
9 | Cc1cc(S(=O)(=O)NC2CCC(CN3CCN(c4ccc5c(c4)n(C4CC4)c(=O)n5C4CCC(=O)NC4=O)CC3)CC2)ccc1Nc1ncc2c(n1)N(C1CCCC(O)C1)C(=O)C21CC1 (stereo not shown) [I-947] | A (A (>75% o)) | < 0.1
10 | Cc1cc(S(=O)(=O)N(C)CCO[C@H]2CC[C@H](CN3CCC(c4ccc5c(c4)n(C)c(=O)n5C4CCC(=O)NC4=O)CC3)CC2)ccc1Nc1ncc2cc(Cl)c(=O)n(C3CCCC3)c2n1 (stereo partly shown) [I-435] | A (A (>75% o)) | < 0.1
11 | Cc1cc(S(=O)(=O)C2CCN(CCCN3CCN(c4cccc5c4n(C)c(=O)n5C4CCC(=O)NC4=O)CC3)CC2)ccc1Nc1ncc2cc(Cl)c(=O)n(C(C)C)c2n1 (stereo not shown) [I-47] | A (A (>75% o)) | < 0.1
12 | Cc1cc(S(=O)(=O)C2CCN(C3CCN(CC4CCN(c5cccc6c5n(C)c(=O)n6C5CCC(=O)NC5=O)CC4)CC3)CC2)ccc1Nc1ncc2cc(Cl)c(=O)n(C(C)C)c2n1 (stereo not shown) [I-10] | A (A (>75% o)) | < 0.1
13 | Cc1cc(S(=O)(=O)C2CC(N3CCC4(CC3)CN(c3cccc5c3n(C)c(=O)n5C3CCC(=O)NC3=O)C4)C2)ccc1Nc1ncc2cc(Cl)c(=O)n(C3CCCC3)c2n1 (stereo not shown) [I-35] | B (B (>50% -75%)) | < 0.1
14 | Cc1cc(S(=O)(=O)NCCCN(C)C2CCN(c3cccc4c3n(C)c(=O)n4C3CCC(=O)NC3=O)CC2)ccc1Nc1ncc2cc(Cl)c(=O)n(C3CCCC3)c2n1 (stereo not shown) [I-420] | A (A (>75% o)) | < 0.1
15 | CC1(O)CCCN(c2nc(Nc3ccc(S(=O)(=O)NC4CCN(CC5(C)CCN(c6ccc(C7CCC(=O)NC7=O)cc6F)CC5)CC4F)cc3F)ncc2C(F)(F)F)C1 (stereo not shown) [I-1068] | A (A (>75% o)) | 0.1 to 0.5
16 | Cc1cc(S(=O)(=O)C2CC3(CCN(CC4CCN(c5cccc(NC6CCC(=O)NC6=O)c5C)CC4)CC3)C2)ccc1Nc1ncc2cc(Cl)c(=O)n(C3CCCC3)c2n1 (stereo not shown) [I-332] | A (A (>75% o)) | 0.1 to 0.5
17 | Cc1cc(NCCOCCOCCOCCOCCCc2cccc3c2n(C)c(=O)n3C2CCC(=O)NC2=O)ccc1Nc1ncc2cc(C(F)F)c(=O)n([C@@H]3CCC[C@]3(C)O)c2n1 (stereo partly shown) [I-490] | A (A (>75% o)) | < 0.1
18 | CC1CC(NS(=O)(=O)c2ccc(Nc3ncc(C(F)(F)F)c(N4CCCC(C)(O)C4)n3)c(F)c2)CCN1CC1CCN(c2ccc(C3CCC(=O)NC3=O)c(F)c2)CC1 (stereo not shown) [I-1037] | A (A (>75% o)) | < 0.1
19 | O=C1CCC(c2ccc(N3CCN(C[C@H]4CC[C@H](NS(=O)(=O)c5ccc(Nc6ncc(C(F)(F)F)c(-c7cnn(C8CCOCC8)c7)n6)c(F)c5)CC4)CC3)cc2Cl)C(=O)N1 (stereo partly shown) [I-818] | A (A (>75% o)) | < 0.1
20 | Cc1cc(S(=O)(=O)C2CC3(CCN(CC4CCN(c5ccc6c(c5F)n(C)c(=O)n6C5CCC(=O)NC5=O)CC4)CC3)C2)ccc1Nc1ncc2cc(Cl)c(=O)n(C(C)C)c2n1 (stereo not shown) [I-128] | A (A (>75% o)) | < 0.1
21 | CC1(O)CCCN(c2nc(Nc3ccc(S(=O)(=O)NC4CC(CCN5CCN(c6ccc(C7CCC(=O)NC7=O)c(F)c6)CC5)C4)cc3C(F)F)ncc2C(F)(F)F)C1 (stereo not shown) [I-1073] | B (B (>50% -75%)) | < 0.1
22 | Cn1nc(N2CCC(=O)NC2=O)c2ccc(C3CCN(Cc4cccc(S(=O)(=O)N5CCC(Nc6ncc7ccc(=O)n(C8CCCC8)c7n6)CC5)c4)CC3)cc21 [I-968] | A (A (>75% o)) | < 0.1
23 | Cc1cc(S(=O)(=O)N2CCC3(CCN(c4cccc5c4n(C)c(=O)n5C4CCC(=O)NC4=O)CC3)CC2)ccc1Nc1ncc2cc(Cl)c(=O)n(C(C)C)c2n1 (stereo not shown) [I-380] | D (D (<25%)) | > 1
24 | Cc1cc(S(=O)(=O)NC2CCN(CC3CCN(c4c(F)ccc5c4n(C)c(=O)n5C4CCC(=O)NC4=O)CC3)CC2F)ccc1Nc1ncc2c(n1)N(C1CCCC(O)C1)C(=O)C21CC1 (stereo not shown) [I-949] | A (A (>75% o)) | < 0.1
25 | Cc1cc(S(=O)(=O)NC2CCC(CN3CCN(c4cccc(C5CCC(=O)NC5=O)c4)CC3)CC2)ccc1Nc1ncc2c(n1)N(C1CCCC(O)C1)C(=O)C21CC1 (stereo not shown) [I-938] | C (C (>25% -50%)) | > 1

Further lines, results first:

Row | CDK2 degradation 14 h: Average Dmax % | DC50 [µM] | Structure (SMILES)
26 | A (A (>75% o)) | < 0.1 | Cc1cc(S(=O)(=O)NC2CC(N3CCCN(CC4CCN(c5cccc6c5n(C)c(=O)n6C5CCC(=O)NC5=O)CC4)CC3)C2)ccc1Nc1ncc(C(F)(F)F)c(N2CCCC(C)(O)C2)n1 (stereo not shown) [I-704]
27 | A (A (>75% o)) | < 0.1 | Cc1cc(S(=O)(=O)NC2CCC(CN3CCN(c4c(F)cc(C5CCC(=O)NC5=O)cc4F)CC3)CC2)ccc1Nc1ncc(C(F)(F)F)c(N2CCCC(C)(O)C2)n1 (stereo not shown) [I-935]
28 | A (A (>75% o)) | < 0.1 | Cc1cc(S(=O)(=O)NC2CC(N3CCN(CC4CCN(c5ccc6c(c5F)n(C)c(=O)n6C5CCC(=O)NC5=O)CC4)CC3)C2)ccc1Nc1ncc(C(F)(F)F)c(N2CCCC(C)(O)C2)n1 (stereo not shown) [I-831]
29 | A (A (>75% o)) | < 0.1 | Cc1cc(S(=O)(=O)NC2CCC(CN3CCN(c4ccc5c(c4F)n(C)c(=O)n5C4CCC(=O)NC4=O)CC3)CC2)ccc1Nc1ncc(C(F)(F)F)c(N2CCCC(C)(O)C2)n1 (stereo not shown) [I-813]
30 | D (D (<25%)) | > 1 | COCc1cnc(Nc2ccc(S(=O)(=O)C3CC4(CCN(CC5CCN(c6ccc7c(c6F)n(C)c(=O)n7C6CCC(=O)NC6=O)CC5)CC4)C3)cc2C)nc1N1CCCC(C)(O)C1 (stereo not shown) [I-856]
31 | C (C (>25% -50%)) | > 1 | Cc1cc(S(=O)(=O)NC2CCC(CN3CCN(c4cccc(C5CCC(=O)NC5=O)c4)CC3)CC2)ccc1Nc1ncc(C(F)(F)F)c(N2CCCC(C)(O)C2)n1 (stereo not shown) [I-929]
32 | A (A (>75% o)) | < 0.1 | Cc1cc(S(=O)(=O)N[C@H](C)CO[C@H]2CC[C@H](CN3CCN(c4ccc5c(c4F)n(C)c(=O)n5C4CCC(=O)NC4=O)CC3)CC2)ccc1Nc1ncc2ccc(=O)n(C3CCCC3)c2n1 (stereo partly shown) [I-827]
33 | A (A (>75% o)) | < 0.1 | CC1CN(CC2CCN(c3ccc(C4CCC(=O)NC4=O)c(F)c3)CC2)CCC1NS(=O)(=O)c1ccc(Nc2ncc(C(F)(F)F)c(N3CCCC(C)(O)C3)n2)c(F)c1 (stereo not shown) [I-1063]
34 | B (B (>50% -75%)) | < 0.1 | Cc1cc(S(=O)(=O)NC(C)COC2CCC(CN3CC(c4cccc5c4n(C)c(=O)n5C4CCC(=O)NC4=O)C3)CC2)ccc1Nc1ncc(C(F)(F)F)c(N2CCCC(C)(O)C2)n1 (stereo not shown) [I-850]
35 | A (A (>75% o)) | < 0.1 | Cc1cc(S(=O)(=O)NC2CCC(CN3CCN(c4ccc(C5CCC(=O)NC5=O)cc4F)C(C)C3)CC2)ccc1Nc1ncc(C(F)(F)F)c(N2CCCC(C)(O)C2)n1 (stereo not shown) [I-1137]
36 | A (A (>75% o)) | < 0.1 | Cc1cc(S(=O)(=O)NC(C)COC2CCC(CN3CCN(c4ccc5c(c4F)n(C)c(=O)n5C4CCC(=O)NC4=O)CC3)CC2)ccc1Nc1ncc(C(F)(F)F)c(N2CCCC(C)(O)C2)n1 (stereo not shown) [I-846]
37 | A (A (>75% o)) | < 0.1 | Cc1cc(S(=O)(=O)NC2CCC(CN3CCN(c4cccc(NC5CCC(=O)NC5=O)c4)CC3)CC2)ccc1Nc1ncc(C(F)(F)F)c(N2CCCC(C)(O)C2)n1 (stereo not shown) [I-1118]
38 | A (A (>75% o)) | 0.1 to 0.5 | Cc1cc(S(=O)(=O)NC2CCC(CN3CCN(c4cc(F)cc(NC5CCC(=O)NC5=O)c4)CC3)CC2)ccc1Nc1ncc(C(F)(F)F)c(N2CCCC(C)(O)C2)n1 (stereo not shown) [I-1144]
